Drawing on patent US10815235B2, “Polycyclic compounds and uses thereof” (priority 2017, dated 2020), this text covers EC50 and IC50 for five compounds.

One test concerns the target Dopamine D2L receptor (Homo sapiens, UniProt P14416). Nature of the test: GTPγS Scintillation Proximity Assay, agonist and antagonist mode. It counts as biochemical. How it is done:
(§1) Antagonist and agonist activities were determined using a GTPγS Scintillation Proximity Assay. The assay was prepared as follows: Membrane extracts were prepared from recombinant human Dopamine D2L, D3; Serotonin 5-HT1A, 5-HT1B, 5-HT1D and 5-HT1F receptors.
(§2) Samples were tested by proprietary biological assays by Ogeda S. A., Euroscreen FAST Business Unit, Rue Adrienne Bolland, 47 B-6041 Gosselies, Belgium. Each protein assay was prepared using the following conditions.
(§3) D2L • Assay buffer: 20 mM HEPES pH 7.4; 100 mM NaCl, 10 μg/ml saponin, 30 mM MgCl2, 0.1% protease-free BSA; • Membranes: recombinant D2L membrane extracts thawed on ice and diluted in assay buffer to give 1 mg/ml (10 μg/well) and kept on ice; • GDP: diluted in assay buffer to give a 3 μM final assay concentration; • Beads: PVT-WGA (Perkin Elmer, RPNQ001), diluted in assay buffer at 25 mg/ml (0.25 mg/well); and • GTPγ^35S: (PerkinElmer NEG030X), diluted in assay buffer to give 0.1 nM. D3 • Assay buffer: 20 mM HEPES pH 7.4; 100 mM NaCl, 10 μg/ml saponin, 1 mM MgCl2, 0.1% protease-free BSA; • Membranes: recombinant D3 membrane extracts thawed on ice and diluted in assay buffer to give 1 mg/ml (10 μg/well) and kept on ice; • GDP: diluted in assay buffer to give a 1 μM final assay concentration; • Beads: PVT-WGA (Perkin Elmer, RPNQ001), diluted in assay buffer at 50 mg/ml (0.5 mg/well); and • GTPγ^35S: (PerkinElmer NEG030X), diluted in assay buffer to give 0.1 nM.
(§4) Membranes were mixed with GDP (volume:volume 1:1) and incubated for at least 15 min on ice. In parallel, GTPγ[^35S] is mixed with the beads (volume:volume 1:1) just before starting the reaction.
(§5) To determine agonist activity, the following reagents were added in the wells of an Optiplate (Perkin Elmer): 50 μL of test or reference ligand, 10 μL of assay buffer, 20 μl of the membranes:GDP mix, and 20 μL of the GTPγ[^35S]:beads mix. EC50 values were used to determine whether a compound acted as an agonist.
(§6) To determine antagonist activity, the following reagents were added in the wells of an Optiplate (Perkin Elmer): 50 μL of test or reference ligand, 20 μL of the membranes:GDP mix, then the plate is incubated 15 minutes at room temperature. After incubation, 10 μL of reference agonist at historical EC80 (final concentration) was added, followed by 20 μL of the GTPγ[^35S]:beads mix.
(§7) The plates were covered with a top seal, mixed on an orbital shaker for 2 min, and then incubated for 1 hour at room temperature. Then the plates were centrifuged for 10 min at 2000 rpm, incubated at room temperature 1 hour and counted for 1 min/well with a PerkinElmer TopCount reader. IC50 values were used to determine whether a compound acted as an antagonist.

The target in the next test is Dopamine D3 receptor (Homo sapiens, UniProt P35462). The description is as above. In kind it is biochemical. As to the method:
as §1, §2, §3, §4, §5, §6, §7

The target of the next test is T1, Adrenergic α1A receptor (Homo sapiens, UniProt P35348).
T1 construct: expressed in transfected cells; host or cells: CHO-K1
T1 sequence (P35348 1-466): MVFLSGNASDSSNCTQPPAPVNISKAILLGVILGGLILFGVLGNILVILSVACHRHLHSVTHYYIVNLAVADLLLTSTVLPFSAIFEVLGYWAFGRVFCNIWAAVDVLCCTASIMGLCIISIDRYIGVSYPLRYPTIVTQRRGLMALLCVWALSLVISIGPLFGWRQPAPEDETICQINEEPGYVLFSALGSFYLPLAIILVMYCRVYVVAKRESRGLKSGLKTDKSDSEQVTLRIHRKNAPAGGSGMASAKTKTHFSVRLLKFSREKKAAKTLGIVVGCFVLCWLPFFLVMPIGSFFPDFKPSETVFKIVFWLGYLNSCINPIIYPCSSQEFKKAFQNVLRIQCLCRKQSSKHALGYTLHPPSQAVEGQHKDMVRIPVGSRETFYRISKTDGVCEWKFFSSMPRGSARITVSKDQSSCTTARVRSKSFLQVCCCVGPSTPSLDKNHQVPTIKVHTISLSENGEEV
Nature of the test: IPOne HTRF assay, agonist and antagonist mode. It counts as cell-based. As to the method: (§8) Antagonist and agonist activities were determined using an IPOne […] HTRF assay. The assay was prepared as follows: CHO-K1 cells expressing human recombinant Adrenergic α1A, Serotonin 5-HT2A, and 5-HT2B receptors grown to mid-log phase in culture media without antibiotics were detached with PBS-EDTA, centrifuged and resuspended in medium without antibiotics buffer. 20,000 cells were distributed in a 96 well plate and incubated overnight at 37° C. with 5% CO2.
(§9) To analyze agonist activity, the medium was removed and 20 μl of assay buffer plus 20 μl of test compound or reference agonist were added in each well. The plate was incubated for 60 min. at 37° C. with 5% CO2. EC50 values were used to determine whether a compound acted as an agonist.
(§10) To analyze antagonist activity, 20 μl of test compound or reference antagonist was added and the plate is incubated for 15 min. at 37° C. in a humidified atmosphere of 95% air with 5% CO2, then 20 μl of reference agonist at a final concentration corresponding to the historical EC80 is added. The plate is incubated for 60 min. at 37° C. with 5% CO2. IP1-D2 reagent and anti-IP1 cryptate reagents are then dispensed in the wells and IP1 concentrations are then measured following the manufacturer recommendations. IC50 values were used to determine whether a compound acted as an antagonist.

Test [1] addresses T2, Serotonin 5-HT2A receptor (Homo sapiens, UniProt P28223).
T2 construct: expressed in transfected cells; host or cells: CHO-K1
Nature of the test: IPOne HTRF assay, agonist and antagonist mode. It counts as cell-based. As to the method:
as §8, §9, §10

The mark [2] stands for this setting: Agonist Activity (EC50), D2L, membrane extracts.
[3] abbreviates: Antagonist Activity (IC50), D2L, membrane extracts, vs reference agonist at EC80.
The mark [4] stands for this setting: EC50 value for the Dopamine D2L receptor, agonist mode, bound stated.
The mark [5] stands for this setting: IC50 value for the Dopamine D2L receptor, antagonist mode, bound stated.
Setting [6] is: Antagonist Activity (IC50), D3, membrane extracts, vs reference agonist at EC80.
The mark [7] stands for this setting: IC50 value for the Dopamine D3 receptor, antagonist mode, bound stated.
[8] abbreviates: Antagonist Activity (IC50), α1A, CHO-K1 cells, vs reference agonist at EC80.
Setting [9] is: IC50 value for the Adrenergic α1A receptor, antagonist mode, bound stated.
[10] abbreviates: CHO-K1 cells, vs reference agonist at EC80, read-out: Antagonist Activity (IC50), 5-HT2A.
The mark [11] stands for this setting: CHO-K1 cells, read-out: Agonist Activity (EC50), 5-HT2A.
The mark [12] stands for this setting: agonist mode, bound stated, read-out: EC50 value for the Serotonin 5-HT2A receptor.
Where [13] appears, read: antagonist mode, bound stated, read-out: IC50 value for the Serotonin 5-HT2A receptor.
Where [14] appears, read: Agonist Activity (EC50), D3, membrane extracts.
The mark [15] stands for this setting: EC50 value for the Dopamine D3 receptor, agonist mode, bound stated.

The structures appear in SMILES notation. Where two headings read alike, the source gives them in different places.

T2 sequence (P28223 whole entry): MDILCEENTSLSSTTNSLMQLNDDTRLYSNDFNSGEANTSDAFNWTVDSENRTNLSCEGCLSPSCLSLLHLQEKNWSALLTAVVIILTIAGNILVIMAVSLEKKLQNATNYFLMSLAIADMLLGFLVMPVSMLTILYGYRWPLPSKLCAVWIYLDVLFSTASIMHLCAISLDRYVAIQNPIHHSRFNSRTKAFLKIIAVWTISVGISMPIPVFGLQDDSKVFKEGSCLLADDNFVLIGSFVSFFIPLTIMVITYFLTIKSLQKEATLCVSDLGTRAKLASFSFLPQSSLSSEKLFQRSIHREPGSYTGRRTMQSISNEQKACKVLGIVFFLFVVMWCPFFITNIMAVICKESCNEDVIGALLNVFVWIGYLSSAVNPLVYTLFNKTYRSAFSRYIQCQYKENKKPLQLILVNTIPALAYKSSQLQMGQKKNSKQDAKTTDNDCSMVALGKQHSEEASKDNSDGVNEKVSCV
Dopamine D2L receptor, sequence (P14416 whole entry): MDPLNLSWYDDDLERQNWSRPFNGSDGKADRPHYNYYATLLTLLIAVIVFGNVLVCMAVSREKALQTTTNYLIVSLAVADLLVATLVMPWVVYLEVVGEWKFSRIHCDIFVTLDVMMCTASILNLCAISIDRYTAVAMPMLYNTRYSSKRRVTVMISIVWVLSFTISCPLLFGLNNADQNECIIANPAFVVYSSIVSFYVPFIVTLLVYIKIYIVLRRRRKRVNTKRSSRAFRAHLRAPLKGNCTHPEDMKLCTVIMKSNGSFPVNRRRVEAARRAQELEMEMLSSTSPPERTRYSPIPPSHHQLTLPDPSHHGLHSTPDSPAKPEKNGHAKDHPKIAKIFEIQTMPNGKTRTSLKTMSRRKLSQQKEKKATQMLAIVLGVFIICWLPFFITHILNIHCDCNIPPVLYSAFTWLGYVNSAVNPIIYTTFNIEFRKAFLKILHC
Dopamine D3 receptor, sequence (P35462 whole entry): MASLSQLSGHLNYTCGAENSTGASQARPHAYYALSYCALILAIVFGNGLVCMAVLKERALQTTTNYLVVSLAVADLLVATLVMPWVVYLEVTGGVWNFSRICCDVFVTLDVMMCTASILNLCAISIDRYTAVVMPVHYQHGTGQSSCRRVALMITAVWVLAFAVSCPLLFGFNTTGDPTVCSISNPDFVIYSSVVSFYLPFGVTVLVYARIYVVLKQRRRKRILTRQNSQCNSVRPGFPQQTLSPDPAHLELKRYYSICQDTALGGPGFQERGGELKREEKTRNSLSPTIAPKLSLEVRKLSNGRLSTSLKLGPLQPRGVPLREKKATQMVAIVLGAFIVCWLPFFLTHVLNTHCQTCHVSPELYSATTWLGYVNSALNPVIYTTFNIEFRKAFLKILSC

Take `CCN(CC)C(=O)N[C@H]1C[C@@H]2c3cccc4[nH]c(Br)c(c34)C[C@H]2N(C)C1` [Compound A8H, 3-((6aR,9S, 10aR)-5-bromo-7-methyl-4,6,6a,7,8,9,10,10a-octahydroindolo[4,3-fg]quinolin-9-yl)-1,1-diethylurea]: the EC50 is 1.1 nM at Dopamine D2L receptor (setting [2]), < 1000 nM on Dopamine D2L receptor (setting [4]), 6.9 nM in test [1] (setting [11]) and < 1000 nM in test [1] (setting [12]). In addition, the IC50 on Dopamine D2L receptor (setting [3]) is 3.5 nM; at Dopamine D2L receptor (setting [5]), < 1000 nM; on Dopamine D3 receptor (setting [6]), 9.3 nM; on Dopamine D3 receptor (setting [7]), < 1000 nM; at Adrenergic α1A receptor (setting [8]), 14 nM; on Adrenergic α1A receptor (setting [9]), < 1000 nM. Further, the figures for the IC50 in test [1] (setting [10]) and in test [1] (setting [13]) were 14 nM and < 1000 nM, respectively.

Consider `CCN(CC)C(=O)N[C@H]1C[C@@H]2c3cccc4[nH]c(C(F)(F)F)c(c34)C[C@H]2N(C)C1` [Compound A9H, 1,1-diethyl-3-((6aR,9S,10aR)-7-methyl-5-(trifluoromethyl)-4,6,6a,7,8,9,10,10a-octahydroindolo[4,3-fg]quinolin-9-yl)urea], for which the EC50 is 4.6 nM on Dopamine D2L receptor (setting [2]), < 1000 nM at Dopamine D2L receptor (setting [4]), 12 nM in test [1] (setting [11]) and < 1000 nM in test [1] (setting [12]). In addition, the IC50 on Dopamine D2L receptor (setting [3]) is 42 nM; on Dopamine D2L receptor (setting [5]), < 1000 nM; on Dopamine D3 receptor (setting [6]), 13 nM; on Dopamine D3 receptor (setting [7]) it was < 1000 nM; at Adrenergic α1A receptor (setting [8]) it was 9.1 nM; at Adrenergic α1A receptor (setting [9]), < 1000 nM. Moreover, the IC50 in test [1] (setting [10]) is 110 nM; in test [1] (setting [13]), < 1000 nM.

Turning to `CCN(CC(F)(F)F)C(=O)N[C@H]1C[C@@H]2c3cccc4[nH]c(C(F)(F)F)c(c34)C[C@H]2N(C)C1` [Compound A16H, 1-ethyl-3-((6aR,9S,10aR)-7-methyl-5-(trifluoromethyl)-4,6,6a,7,8,9,10,10a-octahydroindolo[4,3-fg]quinolin-9-yl)-1-(2,2,2-trifluoroethyl)urea], the IC50 at Dopamine D2L receptor (setting [5]) is < 1000 nM; at Dopamine D2L receptor (membrane extracts, vs reference agonist at EC80, read-out: Antagonist Activity (IC50), D2L), 130 nM; at Dopamine D3 receptor (setting [7]), < 1000 nM; at Dopamine D3 receptor (membrane extracts, vs reference agonist at EC80, read-out: Antagonist Activity (IC50), D3) it was 55 nM; at Adrenergic α1A receptor (CHO-K1 cells, vs reference agonist at EC80, read-out: Antagonist Activity (IC50), α1A) it was 15 nM; on Adrenergic α1A receptor (setting [9]), < 1000 nM. Also, the 50% inhibitory concentration (IC50) was 16 nM in test [1] (Antagonist Activity (IC50), 5-HT2A, CHO-K1 cells, vs reference agonist at EC80) and < 1000 nM in test [1] (IC50 value for the Serotonin 5-HT2A receptor, antagonist mode, bound stated).

As to `CCN(CC(F)(F)F)C(=O)N[C@H]1C[C@@H]2c3cccc4[nH]c(C5CC5)c(c34)C[C@H]2N(C)C1` [Compound A17H, 3-((6aR,9S,10aR)-5-cyclopropyl-7-methyl-4,6,6a,7,8,9,10,10a-octahydroindolo[4,3-fg]quinolin-9-yl)-1-ethyl-1-(2,2,2-trifluoroethyl)urea], the EC50 at Dopamine D2L receptor (setting [2]) was 1.1 nM; at Dopamine D3 receptor (setting [14]), 8.2 nM; at Dopamine D3 receptor (setting [15]), < 1000 nM. For the same compound, the IC50 on Dopamine D2L receptor (setting [3]) is 4.2 nM; on Dopamine D2L receptor (setting [5]), < 1000 nM; on Dopamine D3 receptor (setting [6]), 11 nM; at Dopamine D3 receptor (setting [7]) it was < 1000 nM; at Adrenergic α1A receptor (setting [8]) it was 13 nM; at Adrenergic α1A receptor (setting [9]), < 1000 nM. The IC50 was 11 nM in test [1] (setting [10]) and < 1000 nM in test [1] (setting [13]).

Take `CC[C@@H](CO)NC(=O)[C@@H]1C[C@@H]2c3cccc4c3c(c(C3CC3)n4C)C[C@H]2N(C)C1` [Compound D13H, (6aR,9R,10aR)-5-cyclopropyl-N—((S)-1-hydroxybutan-2-yl)-4,7-dimethyl-4,6,6a,7,8,9,10,10a-octahydroindolo[4,3-fg]quinoline-9-carboxamide]: the EC50 at Dopamine D2L receptor (setting [2]) is 170 nM; at Dopamine D2L receptor (setting [4]), < 1000 nM; at Dopamine D3 receptor (setting [14]), 48 nM; on Dopamine D3 receptor (setting [15]) it was < 1000 nM. Also, the IC50 is 400 nM at Dopamine D3 receptor (setting [6]), < 1000 nM on Dopamine D3 receptor (setting [7]), 74 nM in test [1] (setting [10]) and < 1000 nM in test [1] (setting [13]).
